Assay results taken from patent US9889182B2, “Assisted enzyme replacement therapy” (The Regents of the University of California, priority 2009, dated 2018).
Marks after values point to notes of the source that are not given here.

Experiments:
[1] = test system: Wild-type CHO cells; test: Live-cell uptake of fluorescent guanidinoneomycin conjugate (streptavidin-Alexa-488), microscopy; assay type: cell-based, Chinese hamster; settings: 0.4 M sucrose; 5 mM amiloride
Experimental: Microscopy—Cells were cultured on Lab-Tek chambered coverglass slides (Electron Microscopy Sciences) in F12 medium. After washing with PBS, cells were incubated for 1 h in 1 ml of 60 nM guanidinoneomycin coupled to streptavidin-Alexa-488 (Molecular Probes) at 37° C. Guanidinoneomycin-A488 was prepared by incubating 1 μM guanidinoneomycinbiotin with 6 μg of streptavidin-Alexa-488 in 1 ml of medium. Hoechst 33342 (2 μg/ml; Molecular Probes) was added to cells for the last 20 min of incubation. Cells were washed three times with F12 medium before live cell imaging. Microscopic images were acquired on an Olympus IX70 DeltaVision Spectris Image Deconvolution system, equipped with a temperature and atmospherically controlled stage. Images were deconvolved (10 cycles) using SoftWoRx Explorer Suite software.

[2] = test system: 10T1/2 cells; test: FACS cellular uptake of BODIPY conjugates in 10T1/2 cells; assay type: cell-based, mouse; settings: for Mean Fluorescence Intensity of treated cells according to FACS, 10T1/2: 0.5 μM of each compound for 1 hr, average of 10,000 cells; for cellular uptake compared to poly-Arg peptide BODIPY-Cys(Arg)9 / cellular uptake: FACS; for cellular uptake compared to poly-Arg peptide BODIPY-Cys(Arg)9: Table 1; for cellular uptake: slightly above autofluorescence of the cell
Experimental: (§1) 10T1/2 cells, an adherent non-transformed mouse fibroblast cell line, and HeLa cells, a common human cancer cell line, were purchased from ATCC and used before their 20th passage. Both cell lines were cultured in Dulbecco's modified eagle medium containing 10% fetal bovine serum at 37° C. in an 8% CO2 environment. For each experiment, cells were seeded onto 4 cm tissue culture plates (Nunc) and allowed to grow overnight to ˜80% confluency.
(§2) Compounds 1-5 identified in Table 1, below (0.5-1 μM), were added to each dish and incubated at 37° C./8% CO2 for 0.5-1 hr. Cells were then washed once in PBS, trypsinized with 500 μl ATV solution (Gibco) for 3 minutes, pelleted in a fixed angle centrifuge for 5 minutes at 5,000×G, then brought up in 1 mL PBS. Each sample was quickly (within 5 minutes) analyzed on a FACS VantageSE cell sorter (Becton-Dickinson) using the 488 nm argon/krypton laser line and a 530 nm band pass emission filter. 2,000-10,000 cells were counted per sample.

[3] = test system: HeLa cells; test: FACS cellular uptake of BODIPY conjugates in HeLa cells; assay type: cell-based, human; settings: 1 μM of each compound for 0.5 hr; average of 2,000 cells; about 10-fold higher instrumental gain than 10T1/2
Experimental: as §1, §2

[4] = test system: WT CHO-K1 cells; test: Competition of guanidinoneomycin construct uptake by model glycans; assay type: cell-based, Chinese hamster
[5] = test system: MPS VII fibroblasts; test: Uptake of GUS enzymes by MPS VII fibroblasts (β-glucuronidase activity); assay type: cell-based, human
Experimental: GUS activity was measured by assaying the conversion of 4-methylumbelliferyl β-d-glucuronide (MUG; Sigma) into the fluorochrome 4-methylumbelliferone. The assay was performed in 96-well plates, using 100 μl of reaction buffer containing 50 mmol/L sodium acetate (pH 5.2), 10 mmol/L EDTA, 0.01% bovine serum albumin, 0.1% Triton X-100, […] of MUG, and enzyme. After 1 hour at 37° C., fluorescent product was measured by fluorimetry (excitation at 360 nm, emission at 460 nm) and quantified using a standard curve of 4-methylumbelliferone. One unit (U) of activity is defined as the liberation of […] of 4-methylumbelliferone per hour at pH 5.2, 37° C. α-1-iduronidase activity was measured in a similar way using 4-methylumbelliferyl α-1-iduronide (Glycosynth, Warrington, UK) as substrate. The assay was performed in 10 μl of 50 mmol/L sodium formate (pH 3) buffer containing 10 mmol/L NaCl, 0.1 mg/ml bovine serum albumin, 50 μmol/l substrate, and 2 μl of enzyme.
To test whether GNeo-bGus was taken up by GUS-deficient cells, enzyme activity was measured in MPR VII fibroblasts after 2-hour incubation with various concentrations of unmodified bGus and G-Neo-bGus (see FIG. 15a). Normal HFF, MPS VII, and MPS I fibroblasts were cultured in Earl's Minimal Essential Medium supplemented with 15% of fetal bovine serum and penicillin/streptomycin (Invitrogen). Approximately 8×10^4 cells in 0.4 ml of medium were seeded in each well of a 24-well plate. After 3 days, cells were incubated in fresh medium with and without 5 mmol/L of M6P or glucose 6-phosphate (G6P) (Sigma). The cells were incubated for 2 hours at 37° C., washed twice with PBS, treated with trypsin/EDTA, and then combined with complete medium to inhibit the trypsin. […] In some experiments, cells were treated 3 hours with recombinant heparin lyases I, II, and III (5 mU/ml) in serum-free medium, and uptake was measured as described above in medium containing heparinases. Enzyme activity in the cell extracts was measured in triplicate using 5 μg of total cell protein. […]

[6] = test system: MPS VII fibroblasts; test: [35S]glycosaminoglycan turnover, label-chase, MPS VII fibroblasts; assay type: cell-based, human; settings: enzyme 2 hours, chase 24 hours
Experimental: To test whether internalized GUS was functionally localized in lysosomes, a label-chase format was used in which cells were incubated with ^35S-labeled sulfate for 24 hours to radiolabel the sulfated glycosaminoglycans. The medium was changed, and after 24 hours, the amount of [^35S]glycosaminoglycans that remained associated with the cells was quantitated. Normal and MPS fibroblasts were incubated in DMEM/F12 medium supplemented with 10% dialyzed fetal bovine serum in order to increase the radiospecific activity of added ^35S4. Cells were seeded in a 12-well plate, and at confluence, 50 μCi of Na[^35S]O4 (PerkinElmer) was added in 1 ml of fresh medium. After 24 hours, the cells were rinsed twice with PBS, exposed to GUS or α-iduronidase for 2 hours, rinsed twice, and then chased for 24 hours in complete growth medium. The cells were harvested with trypsin, centrifuged (500 g, 5 minutes), and washed once. The sedimented cells were then resuspended in 100 μl of RIPA buffer (Sigma) and counted by liquid scintillation spectrometry using Scintillator Ultima Gold XR (PerkinElmer).

## N=C(N)NC(=O)c1nc(Cl)c(N)nc1N [amiloride]
[1]
  effect on internalization of fluorescent guanidinoneomycin conjugate: no effect

## OC[C@H]1O[C@@](CO)(O[C@H]2O[C@H](CO)[C@@H](O)[C@H](O)[C@H]2O)[C@@H](O)[C@@H]1O [sucrose]
[1]
  effect on internalization of fluorescent guanidinoneomycin conjugate: marked decrease in internalization

## NC[C@H]1O[C@H](O[C@H]2[C@H](O)[C@@H](O[C@H]3O[C@H](CO)[C@@H](O)[C@H](N)[C@H]3O)[C@H](N)C[C@@H]2N)[C@H](N)C[C@@H]1O [tobramycin, reference compound]
[2]; relative to autofluorescence, BODIPY conjugates, FIG. 3 and Table 1
  enhancement of cellular uptake upon guanidinylation: approximately 10 fold

## BODIPY-Cys(Arg)9 (CRRRRRRRRR; N-acetyl, C-amide, BODIPY label on Cys) [BODIPY-Cys (Arg)9 (5), common poly-Arg transduction peptide, reference compound]
[2]; 0.5 μM BODIPY-Cys(Arg)9 + 10 μM guanidine-neomycin B (6), 1 hr
  Mean Fluorescence Intensity, 10T1/2, in presence of 10 μM (6): 110
[2]; 0.5 μM BODIPY-Cys(Arg)9 + 50 μM guanidine-neomycin B (6), 1 hr
  Mean Fluorescence Intensity, 10T1/2, in presence of 50 μM (6): 90
[2]; 0.5 μM BODIPY-Cys(Arg)9 + 200 μM guanidine-neomycin B (6), 1 hr
  Mean Fluorescence Intensity, 10T1/2, in presence of 200 μM (6): 70
[2]
  Mean Fluorescence Intensity of treated cells according to FACS, 10T1/2: 280
[3]
  Mean Fluorescence Intensity of treated cells according to FACS, HeLa: 2,000

## dermatan sulfate [Dermatan sulfate, DS (G)]
[4]; listed as Dermatan sulfate
  inhibition of cellular uptake of either construct (words): failed to inhibit
[4]; listed as dermatan sulfate
  inhibition of cellular uptake of either construct (words): no significant inhibition

## guanidino-Neo-BODIPY [Guanidino-Neo-BODIPY (4)]
[2]
  Mean Fluorescence Intensity of treated cells according to FACS, 10T1/2: 430
  cellular uptake compared to poly-Arg peptide BODIPY-Cys(Arg)9: better cellular uptake
[3]
  Mean Fluorescence Intensity of treated cells according to FACS, HeLa: 7,900

## guanidino-tobra-BODIPY [Guanidino-Tobra-BODIPY (2)]
[2]
  Mean Fluorescence Intensity of treated cells according to FACS, 10T1/2: 240
  cellular uptake compared to poly-Arg peptide BODIPY-Cys(Arg)9: approximately the same transport efficiency
[3]
  Mean Fluorescence Intensity of treated cells according to FACS, HeLa: 2,100

## neo-BODIPY [Neo-BODIPY (3)]
[2]
  Mean Fluorescence Intensity of treated cells according to FACS, 10T1/2: 60
  cellular uptake: poor cellular uptakes
[3]
  Mean Fluorescence Intensity of treated cells according to FACS, HeLa: ~1,400^(e)

## tobra-BODIPY [Tobra-BODIPY (1)]
[2]
  Mean Fluorescence Intensity of treated cells according to FACS, 10T1/2: 60
  cellular uptake: poor cellular uptakes
[3]
  Mean Fluorescence Intensity of treated cells according to FACS, HeLa: 1,000

B1: hGUS: human recombinant GUS (protein, UniProt P08236 23-651, looked up)
Beta-glucuronidase: LQGGMLYPQESPSRECKELDGLWSFRADFSDNRRRGFEEQWYRRPLWESGPTVDMPVPSSFNDISQDWRLRHFVGWVWYEREVILPERWTQDLRTRVVLRIGSAHSYAIVWVNGVDTLEHEGGYLPFEADISNLVQVGPLPSRLRITIAINNTLTPTTLPPGTIQYLTDTSKYPKGYFVQNTYFDFFNYAGLQRSVLLYTTPTTYIDDITVTTSVEQDSGLVNYQISVKGSNLFKLEVRLLDAENKVVANGTGTQGQLKVPGVSLWWPYLMHERPAYLYSLEVQLTAQTSLGPVSDFYTLPVGIRTVAVTKSQFLINGKPFYFHGVNKHEDADIRGKGFDWPLLVKDFNLLRWLGANAFRTSHYPYAEEVMQMCDRYGIVVIDECPGVGLALPQFFNNVSLHHHMQVMEEVVRRDKNHPAVVMWSVANEPASHLESAGYYLKMVIAHTKSLDPSRPVTFVSNSNYAADKGAPYVDVICLNSYYSWYHDYGHLELIQLQLATQFENWYKKYQKPIIQSEYGAETIAGFHQDPPLMFTEEYQKSLLEQYHLGLDQKRRKYVVGELIWNFADFMTEQSPTRVLGNKKGIFTRQRQPKSAAFLLRERYWKIANETRYPHSVAKSQCLENSLFT
[5]
  effect of heparin lyase treatment of cells on uptake: insensitive
[5]; 5 mmol/l M6P
  effect of M6P on uptake: greatly inhibited uptake
[5]; 2-hour incubation
  uptake: robust
[6]
  ED50, [35S]glycosaminoglycan turnover: ~3 mU

B2: GNeo-AP-hGUS: GNeo conjugate of alkaline phosphatase-treated hGUS (conjugate, UniProt P08236 23-651, looked up)
Beta-glucuronidase: LQGGMLYPQESPSRECKELDGLWSFRADFSDNRRRGFEEQWYRRPLWESGPTVDMPVPSSFNDISQDWRLRHFVGWVWYEREVILPERWTQDLRTRVVLRIGSAHSYAIVWVNGVDTLEHEGGYLPFEADISNLVQVGPLPSRLRITIAINNTLTPTTLPPGTIQYLTDTSKYPKGYFVQNTYFDFFNYAGLQRSVLLYTTPTTYIDDITVTTSVEQDSGLVNYQISVKGSNLFKLEVRLLDAENKVVANGTGTQGQLKVPGVSLWWPYLMHERPAYLYSLEVQLTAQTSLGPVSDFYTLPVGIRTVAVTKSQFLINGKPFYFHGVNKHEDADIRGKGFDWPLLVKDFNLLRWLGANAFRTSHYPYAEEVMQMCDRYGIVVIDECPGVGLALPQFFNNVSLHHHMQVMEEVVRRDKNHPAVVMWSVANEPASHLESAGYYLKMVIAHTKSLDPSRPVTFVSNSNYAADKGAPYVDVICLNSYYSWYHDYGHLELIQLQLATQFENWYKKYQKPIIQSEYGAETIAGFHQDPPLMFTEEYQKSLLEQYHLGLDQKRRKYVVGELIWNFADFMTEQSPTRVLGNKKGIFTRQRQPKSAAFLLRERYWKIANETRYPHSVAKSQCLENSLFT
modifications: GNeo conjugate, dephosphorylated
[6]
  ED50, [35S]glycosaminoglycan turnover: ~10 mU

B3: AP-hGUS: hGUS treated with alkaline phosphatase (protein, UniProt P08236 23-651, looked up)
Beta-glucuronidase: LQGGMLYPQESPSRECKELDGLWSFRADFSDNRRRGFEEQWYRRPLWESGPTVDMPVPSSFNDISQDWRLRHFVGWVWYEREVILPERWTQDLRTRVVLRIGSAHSYAIVWVNGVDTLEHEGGYLPFEADISNLVQVGPLPSRLRITIAINNTLTPTTLPPGTIQYLTDTSKYPKGYFVQNTYFDFFNYAGLQRSVLLYTTPTTYIDDITVTTSVEQDSGLVNYQISVKGSNLFKLEVRLLDAENKVVANGTGTQGQLKVPGVSLWWPYLMHERPAYLYSLEVQLTAQTSLGPVSDFYTLPVGIRTVAVTKSQFLINGKPFYFHGVNKHEDADIRGKGFDWPLLVKDFNLLRWLGANAFRTSHYPYAEEVMQMCDRYGIVVIDECPGVGLALPQFFNNVSLHHHMQVMEEVVRRDKNHPAVVMWSVANEPASHLESAGYYLKMVIAHTKSLDPSRPVTFVSNSNYAADKGAPYVDVICLNSYYSWYHDYGHLELIQLQLATQFENWYKKYQKPIIQSEYGAETIAGFHQDPPLMFTEEYQKSLLEQYHLGLDQKRRKYVVGELIWNFADFMTEQSPTRVLGNKKGIFTRQRQPKSAAFLLRERYWKIANETRYPHSVAKSQCLENSLFT
modifications: dephosphorylated by alkaline phosphatase
[6]
  ED50, [35S]glycosaminoglycan turnover: ~300 mU
